Where “and” joins values, the source holds several entries; their conditions need not be identical. Equal values may be shown once.

For orientation: viability, T/C means the result in the treated group divided by that in the control group, in per cent. In general, IC50 refers to the concentration that inhibits the measured activity by half.

This assay relates to 186277-243-T-J2-PDC spheroids with HUVEC/MSC, viability. In words: Anticancer human tumor 186277-243-T-J2-PDC patient-derived colon adenocarcinoma cell line growth inhibition [CLK]. Particulars: for viability, T/C: stronger effect = lower value; for IC50: curve of compound. An excerpt:
A high-throughput screen of multi-cell type tumor spheroids was designed to identify active combinations of […] and targeted small molecules. Complex spheroids include a stromal component modeled by human endothelial cells (HUVEC) and fibroblasts modeled by human mesenchymal stem cells (MSCs). The concentration ranges selected for each drug and investigational agent were based upon clinically achievable concentrations if the clinical Cmax of the agent was known.
Compounds. The drugs and investigational agents: cirtuvivint (SM08502; NSC835563), CC-671 (NSC850746), vemurafenib (NSC761431), tapotoclax (NSC804041), sotorasib (NSC818433), adagrasib (NSC831453), MRTX-1133 (NSC836407), BAY2416964 (NSC825713), copanlisib (NSC816437), inavolisib (NSC800729), abemaciclib (NSC768073), osimertinib (NSC779217), entinostat (NSC756642), eltanexor (KPT-8602, NSC794443), venetoclax (NSC766270), ceralasertib (NSC777638), bortezomib (NSC756655), olaparib (NSC753686), talazoparib (NSC767125), alisertib (NSC759677), peposertib (NSC802822), gemcitabine (NSC613327), 5-fluorouracil (NSC19893), SN-38 (NSC673596), oxaliplatin (NSC266046), paclitaxel (NSC125973), and doxorubicin (NSC123127), were obtained from the National Cancer Institute (NCI) Developmental Therapeutics Program Chemical Repository. The FDA-approved anticancer drug set is available from the Developmental Therapeutics Program at https://dtp.cancer.gov/organization/dscb/obtaining/available plates.htm. […] The stock solutions were prepared in dimethyl sulfoxide (DMSO, Sigma-Aldrich, St. Louis, MO, cat. D2650), except for the platinum complexes which were prepared in saline (Quality Biological, Gaithersburg, MD, cat. 114-055-101), at 800-fold the tested concentration and stored at -70 degrees C prior to their use. All drugs and investigational agents were tested over a range starting from a high concentration at or near the clinical Cmax and decreasing in half-log increments. If the clinical Cmax for an agent had not been determined, the highest concentration tested was 10 microM.
Cell Culture. All cells were maintained in an incubator at 37 degrees C and 5% CO2 with 95% humidity. The PDC lines were cultured according to standard operating procedures established by the NCI PDMR. Briefly, all PDCs were thawed and cultured in Matrigel-coated flasks prepared with a working solution of 1X Ham's F-12 nutrient mix, without supplementation (Invitrogen, Waltham, MA, cat. 11765054), 100 U/mL penicillin-streptomycin (Invitrogen, cat. 15140122), and 2.5% Matrigel (Corning Inc., Corning, NY, cat. 354248) for the first three passages. The 947758-054-R-J2-PDC line was cultured in 6B/Colon 1A media, which includes advanced DMEM/F-12 (Thermo Fisher Scientific, cat. 12634028), 10 mM HEPES (Thermo Fisher Scientific, cat. 15630080), 1X GlutaMAX supplement (Thermo Fisher Scientific, cat. 35050061), 0.1 mg/mL primocin (InvivoGen, cat. ant-pm-2), 10% defined fetal bovine serum, heat inactivated (HyClone Laboratories Inc., cat. SH30070.03HI), 1.25 mM N-Acetyl-L-cysteine (Sigma-Aldrich, cat. A9165), 10 mM nicotinamide (Sigma-Aldrich, cat. N0636), 1X B-27 supplement (Thermo Fisher Scientific, cat. 17504044), 1X N-2 supplement (Thermo Fisher Scientific, cat. 17502048), and 10 microM Y-27632 dihydrochloride (Tocris Bioscience, cat. 1254). The 876862-298-R-J1-PDC was cultured in 6E media, which includes all 6B/Colon 1A media components plus 50% L-WRN conditioned media (ATCC, cat. CRL-3276), 50 ng/mL recombinant human EGF recombinant protein (hEGF; Thermo Fisher Scientific, cat. PHG0311), 10 ng/mL recombinant human fibroblast growth factor 10 (hGFG-10; PeproTech, cat. 100-26), 1 ng/mL recombinant human fibroblast growth factor 2 (hFGF-2; PeproTech, cat. 100-18B), and 1 µM prostaglandin E2 (PGE2; Tocris, cat. 2296). The 227483-062-R1-J1-PDC line was cultured in Panc media, containing all 6E components except hFGF-2, with the addition of 500 nM SB-431542 (Selleckchem, cat. S1067) and 10 nM gastrin (Tocris, cat. 3006). […]
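Note: compound exposure lasted seven days before readout.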
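Throughout, for viability, T/C: 100% = DMSO vehicle control wells.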

Take `CCCS(=O)(=O)Nc1ccc(F)c(C(=O)c2c[nH]c3ncc(-c4ccc(Cl)cc4)cc23)c1F`: the IC50 was more than 10 µM. For the same molecule, the viability, T/C (compound 0.0316 µM) is 97.7% and 105%. Moreover, the viability, T/C (compound 0.1 µM) is 87.2% and 89.4%. The viability, T/C (compound 0.316 µM) is 113% and 109%. Further, the viability, T/C (compound 1 µM) was 104% and 88.5%. In addition, the viability, T/C (compound 3.16 µM) was 120% and 94%. Besides, under “compound 10 µM”, the viability, T/C was 82.3% and 88%.
`CCN1CCN(Cc2ccc(Nc3ncc(F)c(-c4cc(F)c5nc(C)n(C(C)C)c5c4)n3)nc2)CC1`: the IC50 was more than 1 µM. Besides, the viability, T/C (compound 0.00316 µM) was 81% and 102%. Besides, where the note is “compound 0.01 µM”, the viability, T/C was 94.2% and 98.3%. Moreover, the viability, T/C (compound 0.0316 µM) is 103% and 120%. In addition, the viability, T/C (compound 0.1 µM) was 121% and 116%. The viability, T/C (compound 0.316 µM) was 120% and 131%. Where the note is “compound 1 µM”, the viability, T/C is 117% and 107%.
Take `CCc1c2c(nc3ccc(O)cc13)-c1cc3c(c(=O)n1C2)COC(=O)[C@]3(O)CC`: the half-maximal inhibitory concentration (IC50) is 0.0534 µM and 0.0343 µM. Besides, the viability, T/C (compound 0.00316 µM) is 115% and 111%. Further, the viability, T/C (compound 0.01 µM) was 95.3% and 79.7%. The viability, T/C (compound 0.0316 µM) is 66.4% and 56.8%. For the same molecule, under “compound 0.1 µM”, the viability, T/C was 30.3% and 24.5%. Besides, the viability, T/C (compound 0.316 µM) is 26% and 21.8%. Also, under “compound 1 µM”, the viability, T/C is 21.6% and 16.9%.
Take `COC1C=CCC(C)C(C)S(=O)(=O)NC(=O)c2ccc3c(c2)N(CC2CCC21)CC1(CCCc2cc(Cl)ccc21)CO3` (stereo unspecified): the IC50 was 5.11 µM and 4.15 µM. Also, the viability, T/C (compound 0.0316 µM) was 83.5% and 117%. For the same molecule, the viability, T/C (compound 0.1 µM) is 90% and 103%. In addition, for the setting “compound 0.316 µM”, the viability, T/C was 88.2% and 101%. Besides, the viability, T/C (compound 1 µM) is 85.8% and 84.1%. Besides, the viability, T/C (compound 3.16 µM) was 82.9% and 69.2%. Besides, where the note is “compound 10 µM”, the viability, T/C is 3.82% and 5.57%.
Consider `COc1c(OCCCN2CCOCC2)ccc2c3n(c(=NC(=O)c4cnc(N)nc4)nc12)CCN3`, for which the IC50 is 0.0636 µM and 0.0346 µM. In addition, the viability, T/C (compound 0.00316 µM) was 84.7% and 90.2%. Moreover, the viability, T/C (compound 0.01 µM) is 91.5% and 103%. The viability, T/C (compound 0.0316 µM) is 63.3% and 52.9%. In addition, the viability, T/C (compound 0.1 µM) is 40% and 23.9%. The viability, T/C (compound 0.316 µM) was 23.7% and 13.1%. The viability, T/C (compound 1 µM) was 15.5% and 8.53%.
Turning to `Cn1ncnc1[C@H]1c2n[nH]c(=O)c3cc(F)cc(c23)N[C@@H]1c1ccc(F)cc1`, the IC50 is more than 0.1 µM. The viability, T/C (compound 0.000316 µM) was 99.8% and 98.2%. Also, the viability, T/C (compound 0.001 µM) is 73.1% and 89.7%. Also, under “compound 0.00316 µM”, the viability, T/C is 109% and 110%. Besides, under “compound 0.01 µM”, the viability, T/C was 100% and 103%. The viability, T/C (compound 0.0316 µM) was 115% and 127%. For the same molecule, the viability, T/C (compound 0.1 µM) was 121% and 134%.
Regarding `NC(=O)C(=Cn1cnc(-c2cc(C(F)(F)F)cc(C(F)(F)F)c2)n1)c1cncnc1`, the IC50 is 0.186 µM and 0.175 µM. Besides, the viability, T/C (compound 0.00949 µM) was 88.2% and 88.1%. Besides, the viability, T/C (compound 0.03 µM) was 84.5% and 87.8%. For the same molecule, the viability, T/C (compound 0.0949 µM) was 113% and 107%. The viability, T/C (compound 0.3 µM) was 18.2% and 10.8%. Further, the viability, T/C (compound 0.949 µM) was 4.07% and 5.27%. For the same molecule, the viability, T/C (compound 3 µM) is 1.81% and 3.46%.
Regarding `Nc1ccccc1NC(=O)c1ccc(CNC(=O)OCc2cccnc2)cc1`, the IC50 is 5.6 µM and 3.01 µM. Moreover, for the setting “compound 0.0316 µM”, the viability, T/C is 100% and 92.4%. Moreover, under “compound 0.1 µM”, the viability, T/C is 88.7% and 92%. Moreover, the viability, T/C (compound 0.316 µM) was 85.5% and 84.9%. The viability, T/C (compound 1 µM) is 110% and 100%. Also, the viability, T/C (compound 3.16 µM) was 76.6% and 48%. Further, for the setting “compound 10 µM”, the viability, T/C is 23.2% and 13.7%.

The values above are taken from PubChem BioAssay AID2060625 (Molecular Pharmacology Branch, DTP, NCI, 2025).
